Test results reported in patent publication US8008487B2, “Substituted thieno[2,3-D]pyrimidines as fungicides” (priority 2004, dated 2011).

Key:
[1] = system: Phytophthora infestans; experiment: whole plant or invertebrate; assay type: in vivo; details: Phytophthora infestans, in Solanum lycopersicum, foliar, 24 h, read-out: PHYTIN percent control of disease, 200 ppm on foliage, tomato, one-day protectant test
[2] = system: Colletotricum lagenarium; experiment: Cucumber Anthracnose (COLLLA), whole-plant fungicide test; assay type: in vivo; details: Cucumis sativus, foliar, 24 h, 200 ppm on foliage, one-day protectant test, read-out: COLLLA percent control of disease
[3] = system: Magnaporthe grisea; experiment: whole plant or invertebrate; assay type: in vivo; details: Pyricularia oryzae, in Oryza sativa, foliar, 24 h, read-out: PYRIOR percent control of disease, 200 ppm on foliage, rice, one-day protectant test
[4] = system: Cochliobolus sativus; experiment: Spot Blotch of Wheat (COCHSA), whole-plant fungicide test; assay type: in vivo; details: Bipolaris sorokiniana, foliar, 24 h, 200 ppm on foliage, one-day protectant test, read-out: COCHSA percent control of disease
Outline: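 Percent control is derived from disease severity relative to untreated inoculated plants, scored 4–28 days later. Spore inoculation followed foliar spraying by one day (protectant) or preceded it by two days (curative); plants kept humid 1-2 days before greenhouse. Spray dose was 200 ppm, occasionally 100, 75 or 8.3 ppm, in acetone/Triton X100 water.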

[5] = system: Leptosphaeria nodorum; experiment: Glume Blotch of Wheat (LEPTNO), whole-plant fungicide test; assay type: in vivo; details: Parastagonospora nodorum, foliar, 24 h, 200 ppm on foliage, one-day protectant test, read-out: LEPTNO percent control of disease
[6] = system: Erysiphe cichoracaerum; experiment: Cucumber Powdery Mildew (ERYSCI), whole-plant fungicide test; assay type: in vivo; details: Erysiphe, foliar, 24 h, 200 ppm on foliage, one-day protectant test, read-out: ERYSCI percent control of disease
[7] = system: Puccinia recondita tritici; experiment: Leaf Rust of Wheat (PUCCRT), whole-plant fungicide test; assay type: in vivo; details: Puccinia recondita, foliar, 24 h, 200 ppm on foliage, one-day protectant test, read-out: PUCCRT percent control of disease
[8] = system: Septoria tritici; experiment: Speckled Leaf Blotch of Wheat (SEPTTR), whole-plant fungicide test; assay type: in vivo; details: Zymoseptoria tritici, foliar, 24 h, 200 ppm on foliage, one-day protectant test, read-out: SEPTTR percent control of disease
[9] = system: Erysiphe graminis f. sp. tritici; experiment: Powdery Mildew of Wheat (ERYSGT), whole-plant fungicide test; assay type: in vivo; details: Blumeria graminis, foliar, 24 h, 200 ppm on foliage, one-day protectant test, read-out: ERYSGT percent control of disease

| Compound | pest or weed control at 200 ppm [1] | pest or weed control at 200 ppm [2] | pest or weed control at 200 ppm [3] | pest or weed control at 200 ppm [4] | pest or weed control at 200 ppm [5] | pest or weed control at 200 ppm [6] | pest or weed control at 200 ppm [7] | pest or weed control at 200 ppm [8] | pest or weed control at 200 ppm [9] | melting point |
| --- | --- | --- | --- | --- | --- | --- | --- | --- | --- | --- |
| CC(COc1ccccn1)Nc1ncnc2scc(Cl)c12 (centres unmarked) [Compound 37, 5-(chlorothieno[2,3-d]pyrimidin-4-yl)-[1-methyl-2-(pyridin-2-yloxy)ethyl]amine] | 0 to 49% | 0 to 49% | 80 to 100% | 0 to 49% | 80 to 100% | 80 to 100% | 80 to 100% | 0 to 49% | 50 to 79% | – |
| CC(Nc1ncnc2scc(Cl)c12)c1ccc(OCC(F)(F)F)nc1 (centres unmarked) [Compound 38] | 80 to 100% | 0 to 49% | 80 to 100% | 0 to 49% | 50 to 79% | 80 to 100% | 80 to 100% | 50 to 79% | 80 to 100% | – |
| CCOc1ccc(C(C)Nc2ncnc3scc(Cl)c23)cn1 (centres unmarked) [Compound 39] | 50 to 79% | 0 to 49% | 80 to 100% | 0 to 49% | 80 to 100% | 80 to 100% | 80 to 100% | 80 to 100% | 80 to 100% | – |
| CC(Nc1ncnc2scc(Cl)c12)c1nc2ccccc2s1 (centres unmarked) [Compound 41] | 80 to 100% | 0 to 49% | 80 to 100% | 50 to 79% | 80 to 100% | 80 to 100% | 80 to 100% | 80 to 100% | 80 to 100% | – |
| CSc1ccc(C(C)Nc2ncnc3scc(Cl)c23)cc1 (centres unmarked) [Compound 42] | 0 to 49% | 0 to 49% | 80 to 100% | 0 to 49% | 50 to 79% | 80 to 100% | 80 to 100% | 80 to 100% | 50 to 79% | – |
| CC(Nc1ncnc2scc(Cl)c12)c1ccc(C(F)(F)F)nc1 (centres unmarked) [Compound 44] | 50 to 79% | 0 to 49% | 80 to 100% | 50 to 79% | 50 to 79% | 80 to 100% | 80 to 100% | 0 to 49% | 0 to 49% | – |
| COc1ccc(C(C)Nc2ncnc3scc(Br)c23)cn1 (centres unmarked) [Compound 45, (5-Bromothieno[2,3-d]pyrimidin-4-yl)-[1-(2-methoxypyridin-5-yl)ethyl]amine] | 80 to 100% | 0 to 49% | 80 to 100% | 0 to 49% | 50 to 79% | 80 to 100% | 80 to 100% | 50 to 79% | 80 to 100% | – |
| CCOC(=O)c1sc2ncnc(NC(C)c3ccc(OC)cc3)c2c1O (centres unmarked) [Compound 52, 5-Hydroxy-4-[1-(4-methoxyphenyl)ethylamino]thieno[2,3-d]pyrimidine-6-carboxylic Acid Ethyl Ester] | 0 to 49% | 0 to 49% | 0 to 49% | 0 to 49% | 0 to 49% | – | 0 to 49% | 50 to 79% | – | 151 to 152 °C |
